Results published in PubChem BioAssay (NCI).
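Values below derive from 48-hour exposures of cells grown in 96-well plates, with endpoints linearly interpolated between the two concentrations bracketing the appropriate inhibition level. GI50 = concentration required for 50% inhibition of growth. TGI: concentration producing complete growth inhibition.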

How the values were obtained:
Assay in all cases: DTP human tumour cell line panel, 48 h
[1] = test system: SN12C renal
[2] = test system: U251 CNS
[3] = test system: MDA-MB-435
[4] = test system: T-47D breast
[5] = test system: OVCAR-8 ovarian
[6] = test system: DU-145 prostate
[7] = test system: LOX IMVI melanoma

| SMILES | GI50 [1] | TGI [1] | GI50 [2] | TGI [2] | GI50 [3] | TGI [3] | GI50 [4] | TGI [4] | GI50 [5] | TGI [5] | GI50 [6] | TGI [6] | GI50 [7] | TGI [7] |
| --- | --- | --- | --- | --- | --- | --- | --- | --- | --- | --- | --- | --- | --- | --- |
| Nc1cc(-c2ccccc2)n(C(=O)Nc2ccc(Oc3ccccc3)cc2)n1 | 80.3 µM | > 100 µM | 32.1 µM | > 100 µM | > 100 µM | > 100 µM | 86.2 µM | > 100 µM | 20.1 µM | 57.1 µM | > 100 µM | > 100 µM | > 100 µM | > 100 µM |
| Cc1cn(Cc2ccccc2CCl)c(=O)n(Cc2ccccc2CCl)c1=O | 2.65 µM | 6.97 µM | 1.57 µM | 3.1 µM | 1.97 µM | 4.07 µM | – | – | 2.39 µM | 5.69 µM | 1.93 µM | 3.68 µM | 1.16 µM | 2.59 µM |
| CNc1ncc2cc(Oc3ccc(F)cc3F)c(=O)n(C)c2n1 | > 25 µM | > 25 µM | > 25 µM | > 25 µM | > 25 µM | > 25 µM | > 25 µM | > 25 µM | > 25 µM | > 25 µM | > 25 µM | > 25 µM | > 25 µM | > 25 µM |
| c1ccc(/C(=N\Nc2ccc3ccccc3n2)c2ccccn2)cc1 | 0.507 µM | 25.6 µM | 0.592 µM | 13 µM | 0.66 µM | 16.7 µM | 0.315 µM | 26 µM | 0.456 µM | 17.4 µM | 0.881 µM | 16.8 µM | 0.457 µM | 5.61 µM |
| Cn1c2ccccc2c2[nH]c3ccccc3c(=O)c21 | – | > 100 µM | – | > 100 µM | – | > 100 µM | – | > 100 µM | – | > 100 µM | – | > 100 µM | – | > 100 µM |
| Nc1ccccc1C#C/C=C\C#Cc1ccccc1F | 7.37 µM | 20.9 µM | 6.44 µM | 20.7 µM | 2.05 µM | 4.44 µM | 8.05 µM | > 100 µM | 18.5 µM | 67.7 µM | 5.49 µM | 28 µM | 4.07 µM | 14.2 µM |
| O=C(NN1C(=O)CSC12CCC(c1ccccc1)CC2)c1[nH]c2ccc(F)cc2c1-c1ccccc1 (configuration not stated) | 17.6 µM | 31.8 µM | 15.6 µM | 29.9 µM | 18.8 µM | 36.7 µM | 33.5 µM | > 100 µM | 17.8 µM | 36.5 µM | 16.5 µM | 33.6 µM | 17.1 µM | 30.8 µM |
| COc1ccc(C=C2C(=O)NC(=O)NC2=O)cc1OCc1ccccc1 | 47.6 µg/mL | – | 31.2 µg/mL | – | 20.2 µg/mL | 56.1 µg/mL | – | – | 57.3 µg/mL | – | – | – | 52.5 µg/mL | – |
| NCCSC(C[N+](=O)[O-])c1ccccc1Cl (configuration not stated) | 7.33 µM | 21.9 µM | 1.85 µM | 3.81 µM | 1.87 µM | 5.42 µM | 2.23 µM | 9.09 µM | 6.43 µM | 23.8 µM | 1.92 µM | 3.62 µM | 1.69 µM | 3.56 µM |
| CN(C)N=Nc1nn(C(=O)Nc2ccc(Cc3ccccc3)cc2)c2ccccc12 | > 100 µM | > 100 µM | – | > 100 µM | – | > 100 µM | 0.0719 µM | > 100 µM | 4.1 µM | > 100 µM | > 100 µM | > 100 µM | 0.0625 µM | > 73.3 µM |
| O=C1NC(c2ccccc2)N=C2Oc3ccccc3C=C12 (configuration not stated) | – | > 100 µM | – | > 100 µM | – | 0.138 µM | – | > 100 µM | – | > 100 µM | – | > 100 µM | – | > 31.6 µM |
| COc1ccc(CN=C(N)N=C(N)N)cc1OC | 358 µM | > 1000 µM | 398 µM | > 1000 µM | > 1000 µM | > 1000 µM | 907 µM | > 1000 µM | 444 µM | > 1000 µM | > 1000 µM | > 1000 µM | > 1000 µM | > 1000 µM |
| C=C(C)C(=O)O[C@H]1CC2=CC(CC(C)=C[C@H]3OC(=O)C(=C)C13)OC2=O (some centres not stated) | – | 51.4 µM | – | > 100 µM | – | > 100 µM | – | 36.9 µM | – | > 100 µM | – | 30.8 µM | – | 53.7 µM |
| COc1ccc(OC)c(/C=N/N=C2\C(=O)Nc3c(Cl)cc(Cl)cc32)c1 | – | > 100 µM | – | > 100 µM | – | > 100 µM | – | – | – | > 100 µM | – | – | – | > 100 µM |
| CCc1nc(N)nc(N)c1C#CC(C)c1cc(-c2ccnc(C)c2)c2oc(C)nc2c1 (configuration not stated) | < 0.0145 µM | 11.4 µM | < 0.01 µM | 11.9 µM | < 0.01 µM | 12.3 µM | 0.283 µM | 8.5 µM | < 0.01 µM | 47.1 µM | < 0.01 µM | 7.9 µM | < 0.01 µM | 2.3 µM |
| Oc1ccc(O)c2c1C1(Cl)C(Cl)=C(Cl)C2(Cl)C1(Cl)Cl | 5.29 µM | 22.7 µM | 5.76 µM | 20 µM | 1.7 µM | 4.86 µM | 5.19 µM | 24.3 µM | 10.3 µM | 36.6 µM | 3.45 µM | 12.9 µM | 3.18 µM | 13.4 µM |
| COc1cc(-c2oc3c(OC)c(O)cc(O)c3c(=O)c2OC)ccc1O | – | > 100 µM | – | > 62.5 µM | – | 52.3 µM | – | 18.2 µM | – | > 100 µM | – | > 81.5 µM | – | > 55.8 µM |
| O=C1OC(OC/C(Br)=C(/Br)COC2OC(=O)C(Cl)=C2Cl)C(Cl)=C1Cl (configuration not stated) | – | 22.6 µM | – | 24.2 µM | – | 24.2 µM | – | 30.8 µM | – | > 58 µM | – | 30.6 µM | – | 8.36 µM |
| COC(=O)Nc1nc2ccc(S(=O)(=O)c3ccc(NC(=O)Nc4cc(C(F)(F)F)ccc4F)cc3)cc2[nH]1 | > 25 µM | > 25 µM | > 25 µM | > 25 µM | > 25 µM | > 25 µM | > 25 µM | > 25 µM | > 25 µM | > 25 µM | > 25 µM | > 25 µM | > 25 µM | > 25 µM |
| COc1ccc2c(c1)C=C1CSCC3=Cc4cc(OC)ccc4OC13O2 | 0.723 µM | > 100 µM | 0.427 µM | > 100 µM | – | – | 0.418 µM | > 100 µM | 0.522 µM | > 100 µM | 0.402 µM | > 100 µM | 0.656 µM | > 100 µM |
